Assay results reported in ChEMBL document CHEMBL3228023, “Paradoxical effects of N-cyanoalkyl substituents upon the activities of several classes of opioids” (J Med Chem, 1979).
Active and inactive are the calls of the source. The calls are words filed in the database; no cut-off is given here.

Columns and labels:
[1] = Binding affinity to opiate receptor in mouse/rat NG108-15 hybrid cells
Mus musculus [2] = assay: Antinociceptive activity in sc dosed mouse by Eddy-hot plate assay; type: functional
Mus musculus [3] = assay: Antinociceptive activity in sc dosed mouse by Nilsen assay; type: functional
Opioid receptor = Opioid receptor (Rattus norvegicus, UniProt P33533+P34975+P33535); assay: Binding affinity to opiate receptor in rat brain homogenates; type: tissue-based
[4] = Acute toxicity in sc dosed mouse; type: organism-based; settings: in vivo
Mus musculus [5] = assay: Ratio of morphine ED50 to compound ED50 for antinociceptive activity in sc dosed mouse by Eddy-hot plate assay; type: functional
Mus musculus [6] = assay: Antinociceptive activity in Swiss-webster mouse at 1.6 umol/kg, sc by tail-flick assay; type: functional
Mus musculus [7] = assay: Antinociceptive activity in Swiss-webster mouse at 1.6 umol/kg, sc by tail-flick assay in presence of 0.08 to 8.5 umol/kg naloxone; type: functional, organism-based
Mus musculus [8] = assay: Antinociceptive activity in sc dosed mouse by Eddy-hot plate assay in presence of naloxone; type: functional, organism-based
Rhesus monkey [9] = assay: Acute toxicity in rhesus monkey assessed as head tremors, covulsiona, ataxia at 2 mg/kg by single-dose suppression test; type: organism-based, Macaca mulatta; set-up: dose 2 mg/kg; settings: in vivo
Rhesus monkey [10] = assay: Acute toxicity in rhesus monkey assessed as salivation at 0.25 to 2 mg/kg by single-dose suppression test; type: organism-based, Macaca mulatta; set-up: dose 0.25-2 mg/kg; settings: in vivo
Rhesus monkey [11] = assay: Acute toxicity in rhesus monkey assessed as CNS depression at 0.625 to 5 mg/kg by single-dose suppression test in presence of naloxone; type: organism-based, Macaca mulatta, Central nervous system; set-up: dose 0.625-5 mg/kg; settings: in vivo
Rhesus monkey [12] = assay: Acute toxicity in rhesus monkey assessed as CNS depression at 0.625 to 5 mg/kg by single-dose suppression test; type: organism-based, Macaca mulatta, Central nervous system; set-up: dose 0.625-5 mg/kg; settings: in vivo
Rhesus monkey [13] = assay: Acute toxicity in rhesus monkey assessed as ataxia and mild stupor at 1 to 2 mg/kg by single-dose suppression test; type: organism-based, Macaca mulatta; set-up: dose 1-2 mg/kg; settings: in vivo
Rhesus monkey [14] = assay: Narcotic antagonist activity in rhesus monkey at 1 to 2 mg/kg by precipitated withdrawal test; type: organism-based, Macaca mulatta; set-up: dose 1-2 mg/kg; settings: in vivo
Mus musculus [15] = assay: Ratio of morphine ED50 to compound ED50 for antinociceptive activity in sc dosed mouse by Nilsen assay; type: functional
Rhesus monkey [16] = assay: Acute toxicity in rhesus monkey assessed as minimal CNS depression at 1.5 to 12 mg/kg by single-dose suppression test; type: organism-based, Macaca mulatta, Central nervous system; set-up: dose 1.5-12 mg/kg; settings: in vivo
Mus musculus [17] = assay: Antinociceptive activity in mouse at 100 mg/kg, sc by Eddy-hot plate assay; type: functional, organism-based; set-up: dose 100 mg/kg
[18] = Mus musculus, sc, read-out: ED50

**Q.** What does the source list for `CN1CC[C@]23CCCC[C@H]2[C@H]1Cc1ccc(O)cc13.O=C(O)C(O)C(O)C(=O)O`?
**A.** EC50 [1]: 200 nM; ED50 (Mus musculus [2]; [18]): 0.49 µmol/kg; ED50 (Mus musculus [3]; [18]): 0.54 µmol/kg; EC50 (Opioid receptor): 700 nM

**Q.** With `CN1CC[C@]23c4c5ccc(O)c4O[C@H]2[C@@H](O)C=C[C@H]3[C@H]1C5` as the compound, how does the EC50 [1] read?
**A.** Its EC50 is 1500 nM.

**Q.** And the ED50 (Mus musculus [2]; [18])?
**A.** The ED50 was 3.3 µmol/kg.

**Q.** And the ED50 (Mus musculus [3]; [18])?
**A.** Its ED50 is 4.1 µmol/kg.

**Q.** Which LD50 [4] does the source give for `Cl.N#CCCN1CC[C@]23CCCCC2C1Cc1ccc(O)cc13.O` (stereo partly specified) here?
**A.** Its LD50 is 534 mg/kg.

**Q.** And the “Ratio ED50” value (Mus musculus [5])?
**A.** Its value is 50.

**Q.** And the Activity (Mus musculus [6])?
**A.** Its Activity is 100%.

**Q.** Which Activity (Mus musculus [7]) does the source give for `N#CCCN1CC[C@]23CCCCC2C1Cc1ccc(O)cc13` (stereo partly specified) here?
**A.** The Activity was “inactive”.

**Q.** What about the Activity (Mus musculus [8]) of the same compound?
**A.** The Activity was “inactive”.

**Q.** Which results are given for `C[C@H]1C2Cc3ccc(O)cc3C1(C)CCN2CCC#N` (mixture of isomers)?
**A.** ED50 (Mus musculus [2]): 0.26 µmol/kg; Activity (Rhesus monkey [9]): Toxic; Activity (Rhesus monkey [10]): Toxic; ED50 (Mus musculus [3]): 0.31 µmol/kg; EC50 (Opioid receptor): 3000 nM

**Q.** What does the source list for `C[C@H]1C2Cc3ccc(O)cc3C1(C)CCN2CC#N` (mixture of isomers)?
**A.** ED50 (Mus musculus [2]; [18]): 22.2 µmol/kg; ED50 (Mus musculus [3]; [18]): 39.1 µmol/kg; EC50 (Opioid receptor): 20000 nM; Activity (Rhesus monkey [11]): Toxic; Activity (Rhesus monkey [12]): Toxic

**Q.** With `C[C@H]1C2Cc3ccc(O)cc3C1(C)CCN2CCCC#N` (mixture of isomers) as the compound, how does the Activity (Rhesus monkey [13]) read?
**A.** Its Activity is “Toxic”.

**Q.** And the ED50 (Mus musculus [2]; [18])?
**A.** The ED50 was 2.4 µmol/kg.

**Q.** What about the ED50 (Mus musculus [3]; [18]) of the same compound?
**A.** Its ED50 is 1.5 µmol/kg.

**Q.** What about the EC50 (Opioid receptor) of the same compound?
**A.** Its EC50 is 4000 nM.

**Q.** What about the Activity (Rhesus monkey [14]) of the same compound?
**A.** Its Activity is “Toxic”.

**Q.** Which results are given for `Br.C[C@H]1C2Cc3ccc(O)cc3C1(C)CCN2CCC#N` (mixture of isomers)?
**A.** Ratio ED50 (Mus musculus [5]): 12; Ratio ED50 (Mus musculus [15]): 12

**Q.** Which Activity (Rhesus monkey [16]) does the source give for `C[C@H]1C2Cc3ccc(O)cc3C1(C)CCN2CCC#N` (single isomer, unassigned; (+)) [listing 1 of 2 here] here?
**A.** The Activity was “Toxic”.

**Q.** For `C[C@H]1C2Cc3ccc(O)cc3C1(C)CCN2CCC#N` (single isomer, unassigned; (+)) [listing 2 of 2 here], which Activity (Mus musculus [17]) is on record?
**A.** Its Activity is “inactive”.
